Experiment [1] concerns the target human C5aR (Homo sapiens (Human), UniProt P21730). Nature of the experiment: FLIPR assay: inhibition of C5a-mediated calcium mobilization. It counts as cell-based. As to conditions: stable cell line over expressing human C5aR & Gα15, human C5a at EC50 (0.1-0.25 nM). Put shortly:
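Stable cell line overexpressing human C5aR with Gα15, measured on FLIPR Tetra. Cells loaded 1 h at 37° C with calcium 5 dye and 2.5 mM probenecid in HBSS/20 mM HEPES/0.1% BSA. Compounds preincubated 30 minutes at room temperature in 1% DMSO before C5a.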
(In general: Calcium assays in cells follow changes in intracellular calcium, usually with a dye or a luminescent sensor.)

Experiment [2] relates to CD11b. Description: Human whole blood CD11b up-regulation assay. It counts as cell-based. Conditions: 2 nM human C5a, CD15+ granulocytes, read-out: hCD11b IC50. In outline: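 Heparinized human whole blood (used within 2 h) preincubated 10 min at room temperature with compound in 1% DMSO, then stimulated with 2 nM human C5a for 15 min. After anti-CD15/anti-CD11b staining on ice and RBC lysis, CD11b median fluorescence on 10,000 CD15+ granulocytes measured by flow cytometry.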

The IC50 is the midpoint of a concentration-inhibition curve.

Read-outs that look alike come from different tables or passages of the source.

human C5aR, sequence (P21730 whole entry): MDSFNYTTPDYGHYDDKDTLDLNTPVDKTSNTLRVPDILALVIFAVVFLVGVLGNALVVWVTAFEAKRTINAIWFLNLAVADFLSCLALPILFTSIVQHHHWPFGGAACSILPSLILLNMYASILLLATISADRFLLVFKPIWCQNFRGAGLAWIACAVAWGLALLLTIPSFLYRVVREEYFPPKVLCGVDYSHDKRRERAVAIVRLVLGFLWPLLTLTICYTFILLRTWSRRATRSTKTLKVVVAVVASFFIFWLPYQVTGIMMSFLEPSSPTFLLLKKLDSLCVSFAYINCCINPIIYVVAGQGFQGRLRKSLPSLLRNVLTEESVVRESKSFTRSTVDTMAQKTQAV

As to `CO[C@@H]1CCN(c2nc(-c3c(C)cccc3C)nc3c2CN(c2cc(C(C)C)nn2C)CC3)[C@H](C)C1` [Example 23-C, 2-(2,6-dimethylphenyl)-6-(3-isopropyl-1-methyl-1H-pyrazol-5-yl)-4-((2R,4R)-4-methoxy-2-methylpiperidin-1-yl)-5,6,7,8-tetrahydropyrido[4,3-d]pyrimidine], the IC50 was 40 nM in experiment [1] and 95 nM in experiment [2] (Homo sapiens).
In the same order, the values of `CO[C@@H]1CCN(c2nc(-c3c(C)cccc3C)nc3c2CN(c2cc(C4CC4)nn2C)CC3)[C@H](C)C1` [Example 23-D, 6-(3-cyclopropyl-1-methyl-1H-pyrazol-5-yl)-2-(2,6-dimethylphenyl)-4-((2R,4R)-4-methoxy-2-methylpiperidin-1-yl)-5,6,7,8-tetrahydropyrido[4,3-d]pyrimidine] are 8 nM and 18 nM.
As to `CO[C@H]1CCN(c2nc(-c3c(C(C)C)ccc4[nH]ncc34)nc3c2CN(c2cc(C(C)C)nn2C)CC3)CC1(C)C` [Example 23-F, (S)-6-(3-isopropyl-1-methyl-1H-pyrazol-5-yl)-2-(5-isopropyl-1H-indazol-4-yl)-4-(4-methoxy-3,3-dimethylpiperidin-1-yl)-5,6,7,8-tetrahydropyrido[4,3-d]pyrimidine], the concentration for half-maximal inhibition (IC50) in experiment [1] is 5 nM; in experiment [2] (Homo sapiens), 28 nM.
In the case of `CO[C@@H]1CCN(c2nc(-c3c(C)ccc4[nH]nc(C)c34)nc3c2CN(c2cc(C(C)C)nn2C)CC3)[C@H](C)C1` [Example 23-G, 2-(3,5-dimethyl-1H-indazol-4-yl)-6-(3-isopropyl-1-methyl-1H-pyrazol-5-yl)-4-((2R,4R)-4-methoxy-2-methylpiperidin-1-yl)-5,6,7,8-tetrahydropyrido[4,3-d]pyrimidine], the IC50 in experiment [1] is 2 nM; in experiment [2] (Homo sapiens), 25 nM.
In the same order, the values of `CO[C@@H]1CCN(c2nc(-c3c(C)ccc4[nH]nc(C)c34)nc3c2CN(c2cc(C4CC4)nn2C)CC3)[C@H](C)C1` [Example 23-H, 6-(3-cyclopropyl-1-methyl-1H-pyrazol-5-yl)-2-(3,5-dimethyl-1H-indazol-4-yl)-4-((2R,4R)-4-methoxy-2-methylpiperidin-1-yl)-5,6,7,8-tetrahydropyrido[4,3-d]pyrimidine] are 1 nM and 24 nM.
In the same order, the values of `CO[C@@H]1CCN(c2nc(-c3c(C)ccc4[nH]nc(C)c34)nc3c2CN(c2cc(C4CC4)nn2C)CC3)CC1(C)C` [Example 23-I, (R)-6-(3-cyclopropyl-1-methyl-1H-pyrazol-5-yl)-2-(3,5-dimethyl-1H-indazol-4-yl)-4-(4-methoxy-3,3-dimethylpiperidin-1-yl)-5,6,7,8-tetrahydropyrido[4,3-d]pyrimidine] are 0.5 nM and 22 nM.
As to `CO[C@@H]1CCN(c2nc(-c3c(C)ccc4[nH]nc(C)c34)nc3c2CN(c2cc(C(F)(F)F)nn2C)CC3)[C@H](C)C1` [Example 23-J, 2-(3,5-dimethyl-1H-indazol-4-yl)-4-((2R,4R)-4-methoxy-2-methylpiperidin-1-yl)-6-(1-methyl-3-(trifluoromethyl)-1H-pyrazol-5-yl)-5,6,7,8-tetrahydropyrido[4,3-d]pyrimidine], the figures for the IC50 in experiment [1] and in experiment [2] (Homo sapiens) were 8 nM and 38 nM, respectively.
As to `CO[C@H]1CCN(c2nc(-c3c(C)ccc4[nH]nc(C)c34)nc3c2CN(c2cc(C(F)(F)F)nn2C)CC3)CC1(C)C` [Example 23-K, (S)-2-(3,5-dimethyl-1H-indazol-4-yl)-4-(4-methoxy-3,3-dimethylpiperidin-1-yl)-6-(1-methyl-3-(trifluoromethyl)-1H-pyrazol-5-yl)-5,6,7,8-tetrahydropyrido[4,3-d]pyrimidine], the IC50 turned out to be 64 nM in experiment [1] and 11 nM in experiment [2] (Homo sapiens).
For `Cc1c[nH]c2cccc(-c3nc4c(c(N5CCN(CC(N)=O)[C@H](C)C5)n3)CN(c3ccccc3C(F)(F)F)CC4)c12` [Example 24-D, (R)-2-(2-methyl-4-(2-(3-methyl-1H-indol-4-yl)-6-(2-(trifluoromethyl)phenyl)-5,6,7,8 tetrahydropyrido[4,3-d]pyrimidin-4-yl)piperazin-1-yl)acetamide], the concentration for half-maximal inhibition (IC50) worked out at 91 nM in experiment [1] and 1500 nM in experiment [2] (Homo sapiens).
With `Cc1ccc(F)cc1N1CCc2nc(-c3cccc4[nH]cc(C)c34)nc(N3CCN(CC(N)=O)[C@H](C)C3)c2C1` [Example 24-E, (R)-2-(4-(6-(5-fluoro-2-methylphenyl)-2-(3-methyl-1H-indol-4-yl)-5,6,7,8-tetrahydropyrido[4,3-d]pyrimidin-4-yl)-2-methylpiperazin-1-yl)acetamide], the IC50 in experiment [1] was determined as 75 nM; in experiment [2] (Homo sapiens) it was 385 nM.
In the case of `Cc1ccc(C(F)(F)F)cc1N1CCc2nc(-c3cccc4[nH]cc(C)c34)nc(N3CCN(CC(N)=O)[C@H](C)C3)c2C1` [Example 24-G, (R)-2-(2-methyl-4-(2-(3-methyl-1H-indol-4-yl)-6-(2-methyl-5-(trifluoromethyl)phenyl)-5,6,7,8-tetrahydropyrido[4,3-d]pyrimidin-4-yl)piperazin-1-yl)acetamide], the IC50 in experiment [1] was 7 nM; in experiment [2] (Homo sapiens) it was 670 nM.
On the same counts, the results for `Cc1ccc(C(C)C)cc1N1CCc2nc(-c3cccc4[nH]cc(C)c34)nc(N3CCN(CC(N)=O)[C@H](C)C3)c2C1` [Example 24-J, (R)-2-(4-(6-(5-isopropyl-2-methylphenyl)-2-(3-methyl-1H-indol-4-yl)-5,6,7,8-tetrahydropyrido[4,3-d]pyrimidin-4-yl)-2-methylpiperazin-1-yl)acetamide] are 8 nM and 423 nM.
Turning to `Cc1ccc(C(C)C)cc1N1CCc2nc(-c3c(C)ccc4[nH]ncc34)nc(N3CCN(CC(N)=O)C[C@H]3C)c2C1` [Example 24-L, (R)-2-(4-(6-(5-isopropyl-2-methylphenyl)-2-(5-methyl-1H-indazol-4-yl)-5,6,7,8-tetrahydropyrido[4,3-d]pyrimidin-4-yl)-3-methylpiperazin-1-yl)acetamide], the IC50 amounted to 6 nM in experiment [1] and 391 nM in experiment [2] (Homo sapiens).
In the case of `CC(=O)N1CCN(c2nc(-c3cccc4[nH]cc(C)c34)nc3c2CN(c2cc(C4CC4)ccc2C)CC3)[C@H](C)C1` [Example 25-C, (R)-1-(4-(6-(5-cyclopropyl-2-methylphenyl)-2-(3-methyl-1H-indol-4-yl)-5,6,7,8-tetrahydropyrido[4,3-d]pyrimidin-4-yl)-3-methylpiperazin-1-yl)ethanone], the IC50 in experiment [1] came out at 5 nM; in experiment [2] (Homo sapiens), 183 nM.
On the same counts, the results for `CC(=O)N1CCN(c2nc(-c3cccc4[nH]cc(C)c34)nc3c2CN(c2cc(C4(C)COC4)ccc2C)CC3)[C@H](C)C1` [Example 26-B, (R)-1-(3-Methyl-4-(2-(3-methyl-1H-indol-4-yl)-6-(2-methyl-5-(3-methyloxetan-3-yl)phenyl)-5,6,7,8-tetrahydropyrido[4,3-d]pyrimidin-4-yl)piperazin-1-yl)ethanone] are 20 nM and 907 nM.
On to `Cc1ccc(C(C)C)cc1N1CCc2nc(-c3c(C)cccc3C)nc(N3C[C@H](C)N(CC(N)=O)C[C@H]3C)c2C1` [Example 28-B], for which the values for the IC50 in experiment [1] and in experiment [2] were 3 nM and 107 nM, respectively.
As to `Cc1ccc(C(C)C)cc1N1CCc2nc(-c3cccc4[nH]cc(C)c34)nc(N3CCN(S(C)(=O)=O)[C@H](C)C3)c2C1` [Example 29, (R)-6-(5-isopropyl-2-methylphenyl)-2-(3-methyl-1H-indol-4-yl)-4-(3-methyl-4-(methylsulfonyl)piperazin-1-yl)-5,6,7,8-tetrahydropyrido[4,3-d]pyrimidine], the IC50 is 2 nM in experiment [1] and 300 nM in experiment [2] (Homo sapiens).
Consider `Cc1ccc(C(C)C)cc1N1CCc2nc(-c3cccc4[nH]cc(C)c34)nc(N3CCN(C4COC4)[C@H](C)C3)c2C1` [Example 30-A, (R)-6-(5-Isopropyl-2-methylphenyl)-2-(3-methyl-1H-indol-4-yl)-4-(3-methyl-4-(oxetan-3-yl)piperazin-1-yl)-5,6,7,8-tetrahydropyrido[4,3-d]pyrimidine], for which the IC50 in experiment [1] turned out to be 16 nM; in experiment [2] (Homo sapiens), 5780 nM.
Turning to `COc1nc(-c2c(C)ccc3[nH]nc(C)c23)nc2c1CN(c1cc(C3(C)COC3)ccc1C)CC2` [Example 31-H, 2-(3,5-dimethyl-1H-indazol-4-yl)-4-methoxy-6-(2-methyl-5-(3-methyloxetan-3-yl)phenyl)-5,6,7,8-tetrahydropyrido[4,3-d]pyrimidine], the values for the IC50 in experiment [1] and in experiment [2] (Homo sapiens) were 77 nM and 72 nM, respectively.
Regarding `COc1nc(-c2c(C)ccc3[nH]nc(C)c23)nc2c1CN(c1cc(C(C)C)ccc1C)CC2` [Example 31-I, 2-(3,5-dimethyl-1H-indazol-4-yl)-6-(5-isopropyl-2-methylphenyl)-4-methoxy-5,6,7,8-tetrahydropyrido[4,3-d]pyrimidine], the results for the IC50 in experiment [1] and in experiment [2] (Homo sapiens) were 9 nM and 18 nM, respectively.
With `COc1nc(-c2c(C)ccc3[nH]nc(Cl)c23)nc2c1CN(c1cc(C(C)C)ccc1C)CC2` [Example 32-A, 2-(3-Chloro-5-methyl-1H-indazol-4-yl)-6-(5-isopropyl-2-methylphenyl)-4-methoxy-5,6,7,8 tetrahydropyrido[4,3-d]pyrimidine], the results for the IC50 in experiment [1] and in experiment [2] (Homo sapiens) were 6 nM and 63 nM, respectively.
For `CO[C@H]1CCN(c2nc(-c3c(C)ccc4[nH]nc(Cl)c34)nc3c2CN(c2cc(C(C)C)ccc2C)CC3)CC1(C)C` [Example 32-B, (S)-2-(3-Chloro-5-methyl-1H-indazol-4-yl)-6-(5-isopropyl-2-methylphenyl)-4-(4-methoxy-3,3-dimethylpiperidin-1-yl)-5,6,7,8-tetrahydropyrido[4,3-d]pyrimidine], the IC50 turned out to be 2 nM in experiment [1] and 24 nM in experiment [2] (Homo sapiens).

Values taken from patent US8846656B2, “Tetrahydropyrido-pyridine and tetrahydropyrido-pyrimidine compounds and use thereof as C5a receptor modulators” (Novartis AG, priority 2011, dated 2014).
